The record followed here is patent US10787441B2, “Hepatitis C virus inhibitors” (priority 2016, dated 2020).

pIC50: −log10 of the molar value. Where two headings read alike, the source gives them in different places.

What all share (type): cell-based, Hepatitis C virus
One assay relates to HCV 2b. The assay is described as follows: HCV replicon assay, genotype 2b. The settings on record: for pIC50: read-out: 2b IC50, HCV genotype 2b; for IC50: Hepatitis C virus, read-out: 2b IC50 (nM), HCV genotype 2b.
Assay [1] has as its system HCV genotype 1b Con1 strain subgenomic luciferase replicon. The assay is described as follows: HCV replicon assay, genotype 1b. How it is done: (§1) The HCV luciferase replicon assay measures the ability of a test compound to inhibit HCV replication in cell culture after 3 days of treatment in a human hepatoma cell line (Huh-7) bearing an HCV replicon containing a luciferase-neomycin phosphotransferase fusion gene. The inhibition of HCV replication was measured by quantification of luciferase protein expression. Briefly, Huh-7 cells containing either the HCV genotype 1a H77 strain or genotype 1b Con1 strain subgenomic luciferase replicon (H1a-luc or Zluc, respectively) were grown in DMEM containing glucose, L-glutamine and sodium pyruvate, 10% fetal bovine serum (FBS), 100 IU/mL penicillin, 100 μg/mL streptomycin, 2 mM GlutaMAX, non-essential amino acids and 0.25 (H1a-luc) or 0.5 (Zluc) mg/mL G418. GlutaMAX was obtained from Invitrogen, Corp.; all other media reagents were obtained from Mediatech, Inc. For dose-response testing, the cells were seeded in 96-well plates at 1×10^4 (H1a-luc) or 7.5×10^3 (Zluc) cells/well in a volume of 50 μL, and incubated at 37° C./5% CO2. Three hours after plating, 50 μL of ten 5-fold serial dilutions of compound were added, and cell cultures were incubated at 37° C./5% CO2 for 72 hours. In all cases, Huh-7 cells lacking the HCV replicon served as negative control. To assess luciferase expression, the media/compound was removed from the plates and ONE-glo Luciferase assay reagent (Promega) was added to each well. The assay plates were shaken for 3 minutes at room temperature and luciferase activity for each well was measured with a 1 sec read time on the Victor^3V multilabel counter using a 700 nm cut-off filter (Perkin Elmer). EC50 values were calculated from dose response curves from the resulting best-fit equations determined by Microsoft Excel and XLfit 4.1 software.

Assay [2] deals with HCV genotype 3a NS5A within the 1b-replicon. The assay is described as follows: HCV replicon assay, genotype 3a (NS5A intergenotypic stable cell line). The note with it: for IC50: Hepatitis C virus, read-out: 3a IC50 (nM), HCV genotype 3a; for pIC50: read-out: 3a IC50, HCV genotype 3a.
Text: The nucleotide sequences of the NS5A region of genotype 2a (GenBank Accession # AB047639), genotype 3a (GenBank Accession # D17763), and genotype 4a (GenBank Accession # DQ418788) were synthesized by an outside vendor. The NS5A region of each of these genotypes included the first 11 amino acids of the protease recognition sequence of genotype 1b, as well as the last 10 amino acids of genotype 1b. The NS5A gene cassettes were excised with site specific restriction endonucleases and ligated into a ZS11-luciferase genotype 1b backbone (backbone contains the genotype 1b NS3 protease, NS4a, NS4b, and NS5b coding regions) with similarly cut restriction enzyme sites. Thus, the newly constructed plasmid contains a genotype 2a-, 3a- or 4a-specific NS5A gene within the 1b-replicon.
These new intergenotypic plasmids were used to establish stable cell lines. RNA was generated from the NS5A intergenotypic plasmids and used in conjunction with a lipofectin reagent to transfect a cured Huh7 cell line. Transfected cells were selected for with G418. After selection has occurred the stable cell lines were propagated, tested for luciferase activity, and RT-PCR with genotype specific primers (either 1a, 2a, 3a, or 4a). Stable cell lines containing the intergenotypic replicon were then fully sequenced and analyzed for proper expression of NS3, NS5A and NS5B proteins.
Drug titration analysis was performed using the luciferase replicon assay described herein.
as §1

For assay [3], the system named is HCV 1aY93H mutant replicon. The assay is described as follows: HCV replicon assay, genotype 1a Y93H mutant. The settings on record: for IC50: Hepatitis C virus, read-out: 1aY93H IC50 (nM), HCV genotype 1a, Y93H mutant; for pIC50: read-out: 1aY93H IC50, HCV genotype 1a, Y93H mutant. The protocol:
General procedure: The luciferase replicon transient transfection assay measures the ability of a test compound to inhibit the replication of a transiently-transfected HCV luciferase-bearing wild-type or mutant replicon in cured human hepatoma cells (Huh7.5). The inhibition of HCV replication was measured by quantification of luciferase protein expression. This assay has been validated using a panel of genotype 1a and 1b replicons bearing mutations known to be associated with resistance to BMS-790052. Briefly, subconfluent Huh7.5 cells were electroporated with 10 μg of wild-type or mutant luciferase-bearing HCV replicon RNA. The cells were then seeded in 96-well opaque white plates at 3×10^4 cells/well in 150 μL/well and incubated for 4 hrs at 37° C./5% CO2. Ten 1:5 serial dilutions of each test compound were made in media (DMEM containing glucose, L-glutamine and sodium pyruvate, 10% fetal bovine serum, 100 IU/mL penicillin, 100 μg/mL streptomycin, 2 mM GlutaMAX, and 1×MEM non-essential amino acids (Mediatech, Inc. and Invitrogen Corp.)) at concentrations that were 4× higher than the final concentrations to be tested and 50 μL/well was added to the transfected cells. Untreated, mock-transfected cells served as a negative control of luciferase expression. The plates were incubated at 37° C./5% CO2 for 4 days whereupon the media was removed and 50 μL of ONE-glo luciferase substrate (Promega) was added to each well. The plates were agitated on a rotating platform at room temperature for 3 min and read in a Victor^3V microplate reader (Perkin-Elmer) using a 700 nm cut-off filter with a 1 sec read time. EC50 values were calculated from dose response curves from the resulting best-fit equations determined by Microsoft Excel and XLfit 4.1 software.

Assay [4] has as its system HCV genotype 1a H77 strain subgenomic luciferase replicon. The assay is described as follows: HCV replicon assay, genotype 1a. The note with it: for pIC50: read-out: 1a IC50, HCV genotype 1a; for IC50: Hepatitis C virus, read-out: 1a IC50 (nM), HCV genotype 1a. How it is done: as §1

Take `COC(=O)N[C@H](C(=O)N1CCC[C@H]1c1ncc(-c2ccc3c(c2)Oc2ccc4cc(-c5cnc([C@@H]6CCCN6C(=O)[C@@H](NC(=O)OC)C(C)C)[nH]5)ccc4c2C3C)[nH]1)C(C)C` (single isomer, unassigned) [Compound 2]: the pIC50 with HCV 2b is 7.43; in assay [1] it was 11.44; in assay [4], 11.34. Besides, the figures for the IC50 in assay [2] and in assay [3] were 1.38 nM and 10.6 nM, respectively.

On to `COC(=O)N[C@H](C(=O)N1CCC[C@H]1c1ncc(-c2ccc3c(c2)Oc2ccc4cc(-c5cnc([C@@H]6CCCN6C(=O)[C@@H](NC(=O)OC)C(C)C)[nH]5)ccc4c2C3C)[nH]1)C(C)C` (single isomer, unassigned) [Compound 3], for which the negative-log IC50 (pIC50) in the assay with HCV 2b was 8.71; in assay [1], 11.80; in assay [2], 9.14; in assay [3], 8.15; in assay [4], 11.66.

As to `COC(=O)N[C@H](C(=O)N1CCC[C@H]1c1ncc(-c2ccc3c(c2)Oc2ccc4cc(-c5cnc([C@@H]6CCCN6C(=O)[C@@H](NC(=O)OC)C6CCOCC6)[nH]5)ccc4c2C3C)[nH]1)C1CCOCC1` (single isomer, unassigned) [Compound 11], the pIC50 in the assay with HCV 2b is 10.80; in assay [1] (Hepatitis C virus) it was 11.36. Moreover, the IC50 in assay [2] came out at 0.038 nM; in assay [3], 0.391 nM; in assay [4], 0.0037 nM.

In the case of `COC(=O)N[C@H](C(=O)N1CCC[C@H]1c1ncc(-c2ccc3c(c2)Oc2ccc4cc(-c5cnc([C@@H]6CCCN6C(=O)[C@@H](NC(=O)OC)C6CCOCC6)[nH]5)ccc4c2C3C)[nH]1)C1CCOCC1` (single isomer, unassigned) [Compound 12], the pIC50 was 9.31 in the assay on HCV 2b; 11.25 in assay [1]; 10.26 in assay [2]; 9.26 in assay [3]; 11.35 in assay [4].

With `CCC1c2ccc(-c3cnc([C@@H]4CCCN4C(=O)[C@@H](NC(=O)OC)C4CCOCC4)[nH]3)cc2Oc2ccc3cc(-c4cnc([C@@H]5CCCN5C(=O)[C@@H](NC(=O)OC)C5CCOCC5)[nH]4)ccc3c21` (single isomer, unassigned) [Compound 15], the IC50 with HCV 2b is 0.292 nM. Further, the pIC50 in assay [1] (Hepatitis C virus) was 11.44; in assay [2], 9.66; in assay [3], 9.08; in assay [4], 11.01.

For `CCC1(CC)c2ccc(-c3cnc([C@@H]4CCCN4C(=O)[C@H](NC(=O)OC)C(C)C)[nH]3)cc2Oc2ccc3cc(-c4cnc([C@@H]5CCCN5C(=O)[C@@H](NC(=O)OC)C(C)C)[nH]4)ccc3c21` [Compound 8, methyl [(1R)-1-({(2S)-2-[5-(12,12-diethyl-3-{2-[(2S)-1-{(2S)-2-[(methoxycarbonyl)amino]-3-methylbutanoyl}pyrrolidin-2-yl]-1H-imidazol-5-yl}-12H-benzo[a]xanthen-9-yl)-1H-imidazol-2-yl]pyrrolidin-1-yl}carbonyl)-2-methylpropyl]carbamate], the IC50 amounted to 3.33 nM in the assay with HCV 2b, 0.581 nM in assay [2], 4.1 nM in assay [3] and 0.002 nM in assay [4].

Regarding `CCC1(CC)c2ccc(-c3cnc([C@@H]4CCCN4C(=O)[C@H](NC(=O)OC)C(C)C)[nH]3)cc2Oc2cc3ccc(-c4cnc([C@@H]5CCCN5C(=O)[C@@H](NC(=O)OC)C(C)C)[nH]4)cc3cc21` [Compound 9, methyl [(1R)-1-({(2S)-2-[5-(12,12-diethyl-9-{2-[(2S)-1-{(2S)-2-[(methoxycarbonyl)amino]-3-methylbutanoyl}pyrrolidin-2-yl]-1H-imidazol-5-yl}-12H-benzo[b]xanthen-3-yl)-1H-imidazol-2-yl]pyrrolidin-1-yl}carbonyl)-2-methylpropyl]carbamate], the IC50 with HCV 2b came out at 4.53 nM; in assay [2], 1.11 nM; in assay [3] it was 3.28 nM; in assay [4] it was 0.002 nM.

Take `COC(=O)N[C@H](C(=O)N1CCC[C@H]1c1ncc(-c2ccc3c(c2)Oc2ccc4cc(-c5cnc([C@@H]6CCCN6C(=O)[C@@H](NC(=O)OC)C6CCOCC6)[nH]5)ccc4c2C3(C)C)[nH]1)C1CCOCC1` [Compound 13, dimethyl [(12,12-dimethyl-12H-benzo[a]xanthene-3,9-diyl)bis{1H-imidazole-5,2-diyl(2S)pyrrolidine-2,1-diyl[(1S)-2-oxo-1-(tetrahydro-2H-pyran-4-yl)ethane-2,1-diyl]}]biscarbamate]: the IC50 in the assay with HCV 2b is 0.254 nM; in assay [2], 0.084 nM; in assay [3], 0.682 nM; in assay [4] it was 0.0023 nM. Besides, in assay [1] (Hepatitis C virus), the pIC50 was 11.40.

Turning to `COC(=O)N[C@H](C(=O)N1CCC[C@H]1c1ncc(-c2ccc3c(ccc4oc5cc(-c6cnc([C@@H]7CCCN7C(=O)[C@@H](NC(=O)OC)C7CCOCC7)[nH]6)ccc5c(=O)c43)c2)[nH]1)C1CCOCC1` [Compound 30, dimethyl [(12-oxo-12H-benzo[a]xanthene-3,9-diyl)bis{1H-imidazole-5,2-diyl(2S)pyrrolidine-2,1-diyl[(1S)-2-oxo-1-(tetrahydro-2H-pyran-4-yl)ethane-2,1-diyl]}]biscarbamate], the IC50 in the assay on HCV 2b worked out at 0.481 nM; in assay [2], 0.722 nM; in assay [3], 2.03 nM; in assay [4], 0.0416 nM.

As for `CCN(CC)[C@@H](C(=O)N1C[C@H](F)C[C@H]1c1ncc(-c2ccc3c(ccc4oc5cc(-c6cnc([C@@H]7C[C@@H](F)CN7C(=O)[C@@H](c7ccccc7)N(CC)CC)[nH]6)ccc5c(=O)c43)c2)[nH]1)c1ccccc1` [Compound 31, 3,9-bis(2-{(2S,4R)-1-[(2R)-2-(diethylamino)-2-phenylacetyl]-4-fluoropyrrolidin-2-yl}-1H-imidazol-5-yl)-12H-benzo[a]xanthen-12-one], the IC50 was 797 nM in the assay with HCV 2b, 0.0262 nM in assay [2], 506 nM in assay [3] and 0.31 nM in assay [4].

In the case of `COC(=O)N[C@H](C(=O)N1C[C@H](F)C[C@H]1c1ncc(-c2ccc3c(ccc4oc5cc(-c6cnc([C@@H]7C[C@@H](F)CN7C(=O)[C@@H](NC(=O)OC)C7CCOCC7)[nH]6)ccc5c(=O)c43)c2)[nH]1)C1CCOCC1` [Compound 32, dimethyl [(12-oxo-12H-benzo[a]xanthene-3,9-diyl)bis{1H-imidazole-5,2-diyl[(2S,4R)-4-fluoropyrrolidine-2,1-diyl][(1S)-2-oxo-1-(tetrahydro-2H-pyran-4-yl)ethane-2,1-diyl]}]biscarbamate], the IC50 with HCV 2b amounted to 3.47 nM; in assay [2] it was 5.84 nM; in assay [3], 0.18 nM; in assay [4] it was 0.0841 nM.
